# Paper PMC7327383, “The affinity and selectivity of α‐adrenoceptor antagonists, antidepressants, and antipsychotics for the human α1A, α1B, and α1D‐adrenoceptors” (Pharmacology Research & Perspectives, 2020)
# Read-outs that look alike come from different tables or passages of the source.
# Assays:
# [1] = biological target: T1, human α1B-adrenoceptor (Homo sapiens, UniProt P35368); assay: [3H]prazosin whole-cell competition binding, CHO-α1B cells; conditions: for IC50: read-out: Log IC50 α1B (converted)
# T1 construct: CHO cells stably expressing either the full‐length human α1A, α1B, or α1D‐adrenoceptor
# T1 sequence (P35368 1-520): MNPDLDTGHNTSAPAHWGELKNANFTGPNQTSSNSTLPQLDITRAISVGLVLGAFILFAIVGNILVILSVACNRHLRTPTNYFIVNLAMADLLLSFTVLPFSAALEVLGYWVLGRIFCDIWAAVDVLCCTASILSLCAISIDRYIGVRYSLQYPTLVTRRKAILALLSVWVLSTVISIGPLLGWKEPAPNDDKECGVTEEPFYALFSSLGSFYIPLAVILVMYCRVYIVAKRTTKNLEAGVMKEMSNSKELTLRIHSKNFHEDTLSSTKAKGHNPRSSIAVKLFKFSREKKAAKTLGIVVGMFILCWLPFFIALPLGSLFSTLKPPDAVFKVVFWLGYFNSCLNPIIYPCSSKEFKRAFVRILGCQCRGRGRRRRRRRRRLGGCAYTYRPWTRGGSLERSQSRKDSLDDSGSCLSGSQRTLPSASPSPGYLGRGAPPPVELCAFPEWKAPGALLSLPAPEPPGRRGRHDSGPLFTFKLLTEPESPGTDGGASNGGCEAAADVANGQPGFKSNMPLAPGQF
# [2] = biological target: T2, full-length human α1D-adrenoceptor (Homo sapiens, UniProt P25100); assay: [3H]prazosin whole-cell competition binding, CHO-α1D cells
# T2 sequence (P25100 1-572): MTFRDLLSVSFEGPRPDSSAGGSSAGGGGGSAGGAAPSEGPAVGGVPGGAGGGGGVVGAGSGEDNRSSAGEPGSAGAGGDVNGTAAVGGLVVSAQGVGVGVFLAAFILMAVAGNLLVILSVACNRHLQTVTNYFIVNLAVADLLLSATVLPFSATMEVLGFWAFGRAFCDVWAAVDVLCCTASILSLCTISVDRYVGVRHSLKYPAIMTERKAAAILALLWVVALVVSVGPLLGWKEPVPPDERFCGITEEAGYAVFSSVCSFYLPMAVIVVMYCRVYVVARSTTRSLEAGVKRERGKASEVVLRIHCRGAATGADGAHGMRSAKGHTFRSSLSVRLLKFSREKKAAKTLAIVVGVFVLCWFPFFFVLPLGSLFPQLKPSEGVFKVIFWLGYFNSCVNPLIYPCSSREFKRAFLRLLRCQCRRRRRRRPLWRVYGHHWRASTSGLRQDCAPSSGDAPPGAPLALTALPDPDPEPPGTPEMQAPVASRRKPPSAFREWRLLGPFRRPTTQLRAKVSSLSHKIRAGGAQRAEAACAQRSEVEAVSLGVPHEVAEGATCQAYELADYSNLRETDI
# [3] = biological target: T3, human α1A-adrenoceptor (Homo sapiens, UniProt P35348); assay: [3H]prazosin whole-cell competition binding, CHO-α1A cells; conditions: single-component inhibition curve; given as log KD (negative); mean ± SE mean
# T3 construct: CHO cells stably expressing either the full‐length human α1A, α1B, or α1D‐adrenoceptor
# T3 sequence (P35348 1-466): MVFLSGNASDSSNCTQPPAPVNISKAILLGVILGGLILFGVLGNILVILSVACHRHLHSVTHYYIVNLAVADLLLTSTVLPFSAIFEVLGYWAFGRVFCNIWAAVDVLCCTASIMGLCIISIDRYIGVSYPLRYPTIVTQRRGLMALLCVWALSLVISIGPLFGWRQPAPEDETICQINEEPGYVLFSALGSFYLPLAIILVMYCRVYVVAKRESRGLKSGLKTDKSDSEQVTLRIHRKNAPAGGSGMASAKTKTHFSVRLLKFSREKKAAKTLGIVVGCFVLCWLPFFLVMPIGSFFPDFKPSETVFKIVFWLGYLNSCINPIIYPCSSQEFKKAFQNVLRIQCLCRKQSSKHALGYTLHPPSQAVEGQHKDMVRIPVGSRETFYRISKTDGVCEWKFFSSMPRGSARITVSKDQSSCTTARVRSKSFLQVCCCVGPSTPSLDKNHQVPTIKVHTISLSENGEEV
# [4] = Log KD α1D, single-component inhibition curve, given as log KD (negative), mean ± SE mean
# [5] = single-component inhibition curve, given as log KD (negative), mean ± SE mean, read-out: Log KD α1B (converted)
# [6] = Log KD α1D site 1, high-affinity component of two-component curve, control, used for selectivity
# [7] = low-affinity component of two-component curve, control
# [8] = percentage of inhibition through first component, control
# [9] = two-component inhibition curve, proportion of site 1
# [10] = single-component inhibition curve, given as log KD (negative), mean ± SE mean
compound,measurement,setting,value
COCCCC/C(=N\OCCN)c1ccc(C(F)(F)F)cc1 [Fluvoxamine],IC50,[1],> 100000 nM
same,Kd,[2]; [4],10700 nM
O=C1[C@@H]2[C@H]3CC[C@H](C3)[C@@H]2C(=O)N1C[C@@H]1CCCC[C@H]1CN1CCN(c2nsc3ccccc23)CC1 [Lurasidone],Kd,[1]; [5],67.6 nM
same,Kd,[2]; [6],6.46 nM
same,Log KD α1D site 2,[2]; [7],−5.92 ± 0.06
same,% site 1 α1D,[2]; [8],24.8 ± 3.1% site 1
same,% site 1 α1D,[2]; [9],-8.19 ± 0.10 -5.92 ± 0.06 24.8 ± 3.1% site 1
CN1CCN2c3ncccc3Cc3ccccc3C2C1 (centres unmarked) [Mirtazepine],Log KD α1B,[1]; [10],−5.36 ± 0.03
Fc1ccc([C@@H]2CCNC[C@H]2COc2ccc3c(c2)OCO3)cc1 [Paroxetine],IC50,[1],> 10000 nM
same,Kd,[2]; [4],2340 nM
OCCN1CCN(CCCN2c3ccccc3Sc3ccc(Cl)cc32)CC1 [Perphenazine],Kd,[1]; [5],37.2 nM
same,Kd,[2]; [6],13.8 nM
same,Log KD α1D site 2,[2]; [7],−6.03 ± 0.19
same,% site 1 α1D,[2]; [8],53.3 ± 4.1% site 1
same,% site 1 α1D,[2]; [9],-7.86 ± 0.10 -6.03 ± 0.19 53.3 ± 4.1% site 1
CC(COc1ccccc1)N(CCCl)Cc1ccccc1 (centres unmarked) [Phenoxybenzamine],Kd,"[1]; high-affinity component of two-component curve, control, read-out: Log KD α1B site 1 (converted)",20.4 nM
same,Log KD α1B site 2,[1]; [7],−5.57 ± 0.06
same,"% site 1, α1B",[1]; share of site 1 in the two-component inhibition curve,-7.69 ± 0.06 -5.57 ± 0.06 67.5 ± 2.5% site 1
same,"% site 1, α1B",[1]; [9],-7.69 ± 0.06 -5.57 ± 0.06 67.5 ± 2.5% site 1
same,Kd,[2],3.72 nM
same,Log KD α1D site 2,[2]; [7],−5.42 ± 0.08
same,% site 1 α1D,[2]; [9],-8.43 ± 0.19 -5.42 ± 0.08 39.1 ± 2.0% site 1
Cc1ccc(N(CC2=NCCN2)c2cccc(O)c2)cc1 [Phentolamine],% site 1 α1D,[2]; [8],60.5 ± 3.8% site 1
O=c1[nH]c2ccccc2n1C1CCN(CCCC(c2ccc(F)cc2)c2ccc(F)cc2)CC1 [Pimozide],Kd,[1]; [5],162 nM
same,Kd,[2]; [4],1120 nM
CN1CCN(CCCN2c3ccccc3Sc3ccc(Cl)cc32)CC1 [Prochlorperazine],Kd,[1]; [5],132 nM
same,Kd,[2]; [4],295 nM
CC(C)NCC(O)COc1cccc2ccccc12 (centres unmarked) [Propranolol],Kd,"[1]; app: top concentration inhibited most but not all specific binding, curve extrapolated, read-out: Log KD α1B (apparent) (converted)",105000 nM
same,Kd,[2]; [4],12900 nM
OCCOCCN1CCN(C2=Nc3ccccc3Sc3ccccc32)CC1 [Quetiapine],Kd,[1]; [5],61.7 nM
same,Kd,[2]; [4],331 nM
COc1cc2nc(N3CCN(C(=O)COc4c(OC)cccc4C(C)C)CC3)nc(N)c2cc1OC [Rec15-2615],Log KD α1D,"[2]; log KD from 3H-prazosin whole cell binding, CHO cells, mean ± s.e.mean",-7.89 ± 0.07
COc1cc2nc(N3CCN(C(=O)COc4c(OC)cccc4C(C)C)CC3)nc(N)c2cc1OC [Rec15‐2615],Log KD α1D,[2]; [10],−7.89 ± 0.07
CCOc1ccccc1OCCN[C@H](C)Cc1ccc(OC)c(S(N)(=O)=O)c1 [Tamsulosin],Kd,"[1]; Log KD α1B, +1 mmol/L sodium thiosulphate, ligand preincubated 30 min with thiosulphate, single-component curve (column Log KD site 1)",7.41 nM
same,Kd,[1]; [5],7.59 nM
same,Log KD α1D site 2,[2],−5.67 ± 0.15
same,"Log KD α1D site 2, +1 mmol/L sodium thiosulphate",[2],−5.60 ± 0.08
same,effect of sodium thiosulfate preincubation on binding,"[2]; 1 mmol/L sodium thiosulfate, tamsulosin at all three receptors (Table 2)",no effect
same,Kd,"[2]; Log KD α1D site 1, +1 mmol/L sodium thiosulphate, two-component curve, high-affinity component",0.776 nM
same,Kd,[2]; [6],0.661 nM
same,"% site 1 α1D, +1 mmol/L sodium thiosulphate",[2]; two-component curve,44.0 ± 2.8%
same,% site 1 α1D,[2]; [9],-9.18 ± 0.08 -5.67 ± 0.15 54.6 ± 3.7% site 1
COc1cc2nc(N3CCN(C(=O)C4CCCO4)CC3)nc(N)c2cc1OC (centres unmarked) [Terazosin],Kd,[2]; [4],19.5 nM
O=c1n(CCCN2CCN(c3cccc(Cl)c3)CC2)nc2ccccn12 [Trazodone],Kd,[1]; [5],275 nM
same,Kd,[2]; [4],417 nM
CN1CCN(CCCN2c3ccccc3Sc3ccc(C(F)(F)F)cc32)CC1 [Trifluoperazine],Kd,[1]; [5],132 nM
same,Kd,[2]; [4],437 nM
CC(CN(C)C)CN1c2ccccc2CCc2ccccc21 (centres unmarked) [Trimipramine],Kd,[1]; [5],794 nM
same,Kd,[2]; [4],1020 nM
COc1cccc(OC)c1OCCNCC1COc2ccccc2O1 (centres unmarked) [WB4104],Log KD α1A,[3],−9.03 ± 0.04
